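Tested at 5 concentrations; 48 h exposure; 96-well plates; endpoints linearly interpolated, else capped at highest concentration. GI50 marks 50% less growth. TGI: total growth inhibition.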
How the values were obtained:
Assay in all cases: NCI-60 cell line screen, 48 h
MOLT-4 leukemia = tested on: MOLT-4 leukemia
MDA-MB-435 = tested on: MDA-MB-435
HOP-62 NSCLC = tested on: HOP-62 NSCLC
BT-549 breast = tested on: BT-549 breast
NCI-H522 lung = tested on: NCI-H522 lung
UACC-257 melanoma = tested on: UACC-257 melanoma
DU-145 prostate = tested on: DU-145 prostate
NCI/ADR-RES ovarian = tested on: NCI/ADR-RES ovarian
RPMI-8226 leukemia = tested on: RPMI-8226 leukemia
MDA-MB-231 breast = tested on: MDA-MB-231 breast
A549 NSCLC = tested on: A549 NSCLC
SK-MEL-28 melanoma = tested on: SK-MEL-28 melanoma
UO-31 renal = tested on: UO-31 renal
SNB-75 CNS = tested on: SNB-75 CNS
SF-295 CNS = tested on: SF-295 CNS
NCI-H460 lung = tested on: NCI-H460 lung
MCF7 breast = tested on: MCF7 breast
SK-MEL-2 melanoma = tested on: SK-MEL-2 melanoma
T-47D breast = tested on: T-47D breast
M14 melanoma = tested on: M14 melanoma
PC-3 prostate = tested on: PC-3 prostate
786-0 renal = tested on: 786-0 renal
SN12C renal = tested on: SN12C renal
LOX IMVI melanoma = tested on: LOX IMVI melanoma
NCI-H226 lung = tested on: NCI-H226 lung
SK-MEL-5 melanoma = tested on: SK-MEL-5 melanoma
CAKI-1 renal = tested on: CAKI-1 renal
EKVX NSCLC = tested on: EKVX NSCLC
HS 578T breast = tested on: HS 578T breast
OVCAR-4 ovarian = tested on: OVCAR-4 ovarian
ACHN renal = tested on: ACHN renal
NCI-H23 lung = tested on: NCI-H23 lung
SNB-19 CNS = tested on: SNB-19 CNS
CCRF-CEM leukemia = tested on: CCRF-CEM leukemia
KM12 colon = tested on: KM12 colon
OVCAR-3 ovarian = tested on: OVCAR-3 ovarian
TK-10 renal = tested on: TK-10 renal
UACC-62 melanoma = tested on: UACC-62 melanoma
SR leukemia = tested on: SR leukemia
HT29 colon = tested on: HT29 colon
OVCAR-8 ovarian = tested on: OVCAR-8 ovarian
HCC-2998 colon = tested on: HCC-2998 colon
MALME-3M melanoma = tested on: MALME-3M melanoma
IGROV1 ovarian = tested on: IGROV1 ovarian
HCT-15 colon = tested on: HCT-15 colon
HOP-92 NSCLC = tested on: HOP-92 NSCLC
K-562 leukemia = tested on: K-562 leukemia
SK-OV-3 ovarian = tested on: SK-OV-3 ovarian
HL-60(TB) leukemia = tested on: HL-60(TB) leukemia
HCT-116 colon = tested on: HCT-116 colon
RXF 393 renal = tested on: RXF 393 renal
U251 CNS = tested on: U251 CNS
OVCAR-5 ovarian = tested on: OVCAR-5 ovarian
COLO 205 colon = tested on: COLO 205 colon
SW-620 colon = tested on: SW-620 colon
SF-268 CNS = tested on: SF-268 CNS
A498 renal = tested on: A498 renal
SF-539 CNS = tested on: SF-539 CNS

C=C1C(=O)O[C@H]2[C@H]1CC/C(COC(=O)/C=C\C(=O)NCc1ccc(Cn3c(=O)sn(CCCI)c3=O)cc1)=C\CC[C@@]1(C)O[C@@H]21
GI50 (MOLT-4 leukemia): 557 nM
TGI (MOLT-4 leukemia): 2990 nM
GI50 (MDA-MB-435): 605 nM
TGI (MDA-MB-435): 1250 nM
GI50 (HOP-62 NSCLC): 1510 nM
TGI (HOP-62 NSCLC): 7680 nM
GI50 (BT-549 breast): 622 nM
TGI (BT-549 breast): 1450 nM
GI50 (NCI-H522 lung): 643 nM
TGI (NCI-H522 lung): 1730 nM
GI50 (UACC-257 melanoma): 872 nM
TGI (UACC-257 melanoma): 1810 nM
GI50 (DU-145 prostate): 654 nM
TGI (DU-145 prostate): 1310 nM
GI50 (NCI/ADR-RES ovarian): 988 nM
TGI (NCI/ADR-RES ovarian): 3610 nM
GI50 (RPMI-8226 leukemia): 196 nM
TGI (RPMI-8226 leukemia): 1210 nM
GI50 (MDA-MB-231 breast): 593 nM
TGI (MDA-MB-231 breast): 1340 nM
GI50 (A549 NSCLC): 1050 nM
TGI (A549 NSCLC): 2960 nM
GI50 (SK-MEL-28 melanoma): 800 nM
TGI (SK-MEL-28 melanoma): 1500 nM
GI50 (UO-31 renal): 316 nM
TGI (UO-31 renal): 1020 nM
GI50 (SNB-75 CNS): 442 nM
TGI (SNB-75 CNS): 1160 nM
GI50 (SF-295 CNS): 2190 nM
TGI (SF-295 CNS): 8060 nM
GI50 (NCI-H460 lung): 738 nM
TGI (NCI-H460 lung): 1580 nM
GI50 (MCF7 breast): 282 nM
TGI (MCF7 breast): 1090 nM
GI50 (SK-MEL-2 melanoma): 919 nM
TGI (SK-MEL-2 melanoma): 1960 nM
GI50 (T-47D breast): 801 nM
TGI (T-47D breast): 2170 nM
GI50 (M14 melanoma): 637 nM
TGI (M14 melanoma): 1440 nM
GI50 (PC-3 prostate): 610 nM
TGI (PC-3 prostate): 1440 nM
GI50 (786-0 renal): 770 nM
TGI (786-0 renal): 1510 nM
GI50 (SN12C renal): 643 nM
TGI (SN12C renal): 1500 nM
GI50 (LOX IMVI melanoma): 291 nM
TGI (LOX IMVI melanoma): 983 nM
GI50 (NCI-H226 lung): 883 nM
TGI (NCI-H226 lung): 2620 nM
GI50 (SK-MEL-5 melanoma): 813 nM
TGI (SK-MEL-5 melanoma): 1490 nM
GI50 (CAKI-1 renal): 298 nM
TGI (CAKI-1 renal): 999 nM
GI50 (EKVX NSCLC): 729 nM
TGI (EKVX NSCLC): 1440 nM
GI50 (HS 578T breast): 851 nM
TGI (HS 578T breast): 2390 nM
GI50 (OVCAR-4 ovarian): 603 nM
TGI (OVCAR-4 ovarian): 1290 nM
GI50 (ACHN renal): 413 nM
TGI (ACHN renal): 1040 nM
GI50 (NCI-H23 lung): 788 nM
TGI (NCI-H23 lung): 1530 nM
GI50 (SNB-19 CNS): 850 nM
TGI (SNB-19 CNS): 1690 nM
GI50 (CCRF-CEM leukemia): 155 nM
TGI (CCRF-CEM leukemia): 1680 nM
GI50 (KM12 colon): 866 nM
TGI (KM12 colon): 1730 nM
GI50 (OVCAR-3 ovarian): 281 nM
TGI (OVCAR-3 ovarian): 927 nM
GI50 (TK-10 renal): 758 nM
TGI (TK-10 renal): 1520 nM
GI50 (UACC-62 melanoma): 732 nM
TGI (UACC-62 melanoma): 1450 nM
GI50 (SR leukemia): 170 nM
TGI (SR leukemia): 7800 nM
GI50 (HT29 colon): 547 nM
TGI (HT29 colon): 2460 nM
GI50 (OVCAR-8 ovarian): 771 nM
TGI (OVCAR-8 ovarian): 3410 nM
GI50 (HCC-2998 colon): 909 nM
TGI (HCC-2998 colon): 1660 nM
GI50 (MALME-3M melanoma): 707 nM
TGI (MALME-3M melanoma): 1420 nM
GI50 (IGROV1 ovarian): 368 nM
TGI (IGROV1 ovarian): 1110 nM
GI50 (HCT-15 colon): 355 nM
TGI (HCT-15 colon): 1120 nM
GI50 (HOP-92 NSCLC): 580 nM
TGI (HOP-92 NSCLC): 1310 nM
GI50 (K-562 leukemia): 312 nM
TGI (K-562 leukemia): 13100 nM
GI50 (SK-OV-3 ovarian): 5080 nM
TGI (SK-OV-3 ovarian): 11400 nM
GI50 (HL-60(TB) leukemia): 575 nM
TGI (HL-60(TB) leukemia): 2260 nM
GI50 (HCT-116 colon): 193 nM
TGI (HCT-116 colon): 770 nM
GI50 (RXF 393 renal): 423 nM
TGI (RXF 393 renal): 1110 nM
GI50 (U251 CNS): 871 nM
TGI (U251 CNS): 1950 nM
GI50 (OVCAR-5 ovarian): 752 nM
TGI (OVCAR-5 ovarian): 1590 nM
GI50 (COLO 205 colon): 568 nM
TGI (COLO 205 colon): 1510 nM
GI50 (SW-620 colon): 250 nM
TGI (SW-620 colon): 891 nM
GI50 (SF-268 CNS): 740 nM
TGI (SF-268 CNS): 1440 nM
GI50 (A498 renal): 831 nM
TGI (A498 renal): 1550 nM
GI50 (SF-539 CNS): 689 nM
TGI (SF-539 CNS): 1340 nM
